# According to patent US8871934B2, “Fluorene compound and pharmaceutical use thereof” (Japan Tobacco Inc., priority 2008, dated 2014):
# Where two headings read alike, the source gives them in different places.
# Molecular target: human PDHK2 (hPDHK2) (Homo sapiens (Human), UniProt Q15119)
# Test: Inhibitory action of PDHK activity in vitro (kinase reaction, residual PDH activity measured)
# Format: biochemical
# Method: In the case of human PDHK2 (hPDHK2, Genbank Accession No. NM_002611), modified hPDHK2 cDNA wherein FLAG-Tag sequence is added to the N terminal by a polymerase linkage reaction was prepared based on hPDHK2 cDNA clone (pReceiver-M01/PDK2-GeneCopoeia), and cloned into a vector (pET17b-Novagen). The recombinant construct was transformed into Escherichia coli (DH5α-TOYOBO). The recombinant clones were identified, plasmid DNA was isolated and subjected to the DNA sequence analysis. One clone which had the expected nucleic acid sequence was selected for expression work.
# During the assay, the hPDHK2 enzyme concentration was set to the minimal concentration at which PDH is inhibited the most.
# 0.05 U/mL PDH (porcine heart PDH complex, Sigma P7032) and 1.6 μg/mL hPDHK2 were mixed in a buffer (50 mmol/L 3-morpholinopropanesulfonic acid (pH 7.0), 20 mmol/L dipotassium hydrogen phosphate, 60 mmol/L potassium chloride, 2 mmol/L magnesium chloride, 0.4 mmol/L EDTA, and 0.2% Pluronic F-68, 2 mmol/L dithiothreitol), the mixture was incubated at 4° C. overnight to give PDH/hPDHK2 complex. The test compound was diluted with dimethyl sulfoxide (DMSO). PDH/hPDHK2 complex (20 μL), test compound (1.5 μL) and 3.53 μmol/L ATP (diluted with buffer, 8.5 μL) were added to a half area 96 well UV-transparent microplate (Corning 3679), and PDHK reaction was performed at room temperature for 45 min. Instead of the test compound, DMSO (1.5 μL) was added to a control well. DMSO (1.5 μL) was added instead of the test compound to a blank well for the measurement of the maximum rate of PDH reaction, and hPDHK2 was not added. Than, 10 μL of substrates (5 mmol/L sodium pyruvate, 5 mmol/L Coenzyme A, 12 mmol/L NAD, and 5 mmol/L thiamine pyrophosphate, diluted with buffer) was added. The mixture was incubated at room temperature for 90 min, and the residual PDH activity was measured. The absorbance at 340 nm before and after PDH reaction was measured on a microplate reader to detect NADH produced by the PDH reaction. The PDHK inhibitory rate (%) of the test compound was calculated from the formula [{(PDH activity of test compound—PDH activity of control)/PDH activity of blank—PDH activity of control)}×100]. The IC50 value was calculated from the concentrations of the test compound at two points enclosing 50% inhibition of the PDHK activity.
# [1] = PDHK inhibitory activity, class symbol of IC50
# [2] = read-out: PDHK inhibitory activity IC50
# [3] = PDHK inhibitory activity (class symbol)
IC50 (PDHK inhibitory activity IC50 (μmol/L)) [nM],SMILES,IC50 [1] [nM],IC50 [2] [nM],IC50 [3] [nM]
,CN(C)C(=O)CCCOc1ccc2c(c1)C(O)(C(F)(F)F)c1ccccc1-2 (centres unmarked) [compound 282],100 to 1000,226,
,O=C1CC[C@@H](COc2ccc3c(c2)C(O)(C(F)(F)F)c2ccccc2-3)N1 (some centres unmarked) [compound 446],100 to 1000,565,
,OC1(C(F)(F)F)c2ccccc2-c2cc(Cl)ccc21 (centres unmarked) [compound 9],> 1000,20000,
,OC1(C(F)(F)F)c2ccccc2-c2ccc(OC3CCCCC3)cc21 (centres unmarked) [compound 260],> 1000,2810,
,CCC(=O)Nc1ccc2c(c1)-c1ccccc1C2(O)C(F)(F)F (centres unmarked) [compound 100],> 1000,6150,
,CC(=O)NCCCOc1ccc2c(c1)C(O)(C(F)(F)F)c1ccccc1-2 (centres unmarked) [compound 340],> 1000,1590,
,O=C(NCCCCO)c1cc(-c2cncnc2)c2c(c1)C(O)(C(F)(F)F)c1ccccc1-2 (centres unmarked) [compound 371],100 to 1000,617,
,O[C@@H]1CCN(CCOc2ccc3c(c2)C(O)(C(F)(F)F)c2ccccc2-3)C1 (some centres unmarked) [compound 390],100 to 1000,954,
,CCNC(=O)c1ccc2c(c1)-c1ccccc1C2(O)C(F)(F)F (centres unmarked) [compound 72],> 1000,4420,
,O=C1CCCN1CCOc1cc(CO)c2c(c1)C(O)(C(F)(F)F)c1ccccc1-2 (centres unmarked) [compound 583],< 100,64,
,OCCn1cc(-c2cnc3c(c2)C(O)(C(F)(F)F)c2ccccc2-3)cn1 (centres unmarked) [compound 563],< 100,63,
,COC(=O)N1CCN(c2ccc3c(c2)C(O)(C(F)(F)F)c2ccccc2-3)CC1 (centres unmarked) [compound 210],> 1000,1330,
,OCCCCCOc1cc(-c2cncnc2)c2c(c1)C(O)(C(F)(F)F)c1ccccc1-2 (centres unmarked) [compound 406],< 100,25,
,CN(CCCO)C(=O)c1ccc2c(c1)C(O)(C(F)(F)F)c1ccccc1-2 (centres unmarked) [compound 327],> 1000,2940,
,O=C1CCCN1CCOc1cc(-c2cn[nH]c2)c2c(c1)C(O)(C(F)(F)F)c1ccccc1-2 (centres unmarked) [compound 491],< 100,20,
,CC(C)(C)C(=O)N1CCN(c2cc(-c3cccnc3)c3c(c2)C(O)(C(F)(F)F)c2ccccc2-3)CC1 (centres unmarked) [compound 285],< 100,20,
,O=C(O)Cn1cc(-c2cc(Cl)c3c(c2)C(O)(C(F)(F)F)c2ccccc2-3)cn1 (centres unmarked) [compound 516],100 to 1000,110,
,COc1cc(C(N)=O)c2c(c1)C(O)(C(F)(F)F)c1ccccc1-2 (centres unmarked) [compound 626],,674,100 to 1000
,Cn1cc(-c2cc(C(N)=O)c3c(c2)C(O)(C(F)(F)F)c2ccccc2-3)cn1 (centres unmarked) [compound 518],< 100,54,
,O=C(c1cc(Cl)c2c(c1)C(O)(C(F)(F)F)c1ccccc1-2)N1CC(O)C1 (centres unmarked) [compound 339],100 to 1000,177,
,O=C1CCC(CO)N1CCOc1ccc2c(c1)C(O)(C(F)(F)F)c1ccccc1-2 (centres unmarked) [compound 450],100 to 1000,442,
,O=C(O)CCCOc1cc(-c2cnco2)c2c(c1)C(O)(C(F)(F)F)c1ccccc1-2 (centres unmarked) [compound 613],,76,< 100
,CC(O)c1cc(-c2cnn(C)c2)cc2c1-c1ccccc1C2(O)C(F)(F)F (centres unmarked) [compound 598],100 to 1000,653,
,OC1(C(F)(F)F)c2ccccc2-c2ccc(N3CCOCC3)cc21 (centres unmarked) [compound 161],> 1000,2110,
,O=C1CCCN1CCOc1ccc2c(c1)C(O)(C(F)(F)F)c1ccccc1-2 (centres unmarked) [compound 359],100 to 1000,187,
,NCCOc1ccc2c(c1)C(O)(C(F)(F)F)c1ccccc1-2 (centres unmarked) [compound 320],> 1000,8760,
,O=C1CCC(COc2ccc3c(c2)C(O)(C(F)(F)F)c2ccccc2-3)N1CCCO (centres unmarked) [compound 421],100 to 1000,233,
,CC(C)c1cc(-c2cnn(C(CO)CO)c2)c2c(c1)C(O)(C(F)(F)F)c1ccccc1-2 (centres unmarked) [compound 654],,55,< 100

IC50 (PDHK inhibitory activity IC50 (μmol/L)) [nM],SMILES,IC50 [1] [nM],IC50 [2] [nM],IC50 [3] [nM]
,CN(C)C1CN(C(=O)c2ccc3c(c2)C(O)(C(F)(F)F)c2ccccc2-3)C1 (centres unmarked) [compound 133],> 1000,2500,
,"CCOc1cc(-c2cnn(CCCC(=O)O)c2)c2c(c1)C(O)(C(F)(F)F)c1ccccc1-2 (single isomer, unassigned) [compound 582]",< 100,21,
,CNC(=O)c1ccc(-c2ccc3c(c2)C(O)(C(F)(F)F)c2ccccc2-3)cc1 (centres unmarked) [compound 191],100 to 1000,216,
,OCCn1cc(-c2cccc3c2-c2ccccc2C3(O)C(F)(F)F)cn1 (centres unmarked) [compound 411],< 100,66,
,O=C(O)CCCOc1cc(Cl)c2c(c1)C(O)(C(F)(F)F)c1ccccc1-2 (centres unmarked) [compound 478],100 to 1000,433,
,Cn1cc(-c2cc(C#CCO)c3c(c2)C(O)(C(F)(F)F)c2ccccc2-3)cn1 (centres unmarked) [compound 603],,228,100 to 1000
,OC1(C(F)(F)F)c2ccccc2-c2ccc(Cc3ccccc3)cc21 (centres unmarked) [compound 317],> 1000,2310,
,CC(C)C(=O)Nc1ccc2c(c1)-c1ccccc1C2(O)C(F)(F)F (centres unmarked) [compound 101],> 1000,10300,
,OC1(C(F)(F)F)c2ccccc2-c2ccc(-c3ccsc3)cc21 (centres unmarked) [compound 145],> 1000,1380,
,Cn1cc(-c2cc(N3CCC(C(=O)O)CC3)cc3c2-c2ccccc2C3(O)C(F)(F)F)cn1 (centres unmarked) [compound 558],< 100,81,
,OC1(C(F)(F)F)c2ccccc2-c2c(-c3cnn(Cc4ccccc4)c3)cccc21 (centres unmarked) [compound 466],< 100,55,
,"CC(C)(C)Cn1cc(-c2cc(CO)c3c(c2)C(O)(C(F)(F)F)c2ccccc2-3)cn1 (single isomer, unassigned) [compound 660, 2-[1-(2,2-dimethyl-propyl)-1H-pyrazol-4-yl]-4-hydroxymethyl-9-trifluoromethyl-9H-fluoren-9-ol]",,17,< 100
,NC(=O)COc1cc(Cl)c2c(c1)C(O)(C(F)(F)F)c1ccccc1-2 (centres unmarked) [compound 385],100 to 1000,234,
,"CC(CCOc1cc(-c2cnn(C)c2)c2c(c1)C(O)(C(F)(F)F)c1ccccc1-2)C(=O)O (single isomer, unassigned) [compound 577]",< 100,23,
,CC(=O)N(CCO)CCOc1ccc2c(c1)C(O)(C(F)(F)F)c1ccccc1-2 (centres unmarked) [compound 379],100 to 1000,351,
16,Cc1cc(-c2cnn(CC(N)=O)c2)c2c(c1)[C@@](O)(C(F)(F)F)c1ccccc1-2 (stereo in doubt) [compound 532],< 100,,
,O=C(COc1ccc2c(c1)C(O)(C(F)(F)F)c1ccccc1-2)N1CCCC1 (centres unmarked) [compound 360],100 to 1000,548,
,CN1C(=O)CC[C@H]1COc1ccc2c(c1)C(O)(C(F)(F)F)c1ccccc1-2 (some centres unmarked) [compound 448],100 to 1000,381,
,CC[Si](CC)(CC)CCc1cc(C(N)=O)c2c(c1)C(O)(C(F)(F)F)c1ccccc1-2 (centres unmarked) [compound 634],,100,100 to 1000
,COC(=O)c1ccc2c(c1)-c1ccccc1C2(O)C(F)(F)F (centres unmarked) [compound 40],> 1000,2470,
,OC1(C(F)(F)F)c2ccccc2-c2ccc(-c3cccc(F)c3)cc21 (centres unmarked) [compound 129],100 to 1000,864,
,CS(=O)(=O)c1cccc2c1-c1ccccc1C2(O)C(F)(F)F (centres unmarked) [compound 143],> 1000,> 10000,
,CCOC1CN(C(=O)c2ccc3c(c2)C(O)(C(F)(F)F)c2ccccc2-3)C1 (centres unmarked) [compound 104],100 to 1000,279,
,NC(=O)c1cccc(-c2ccc3c(c2)C(O)(C(F)(F)F)c2ccccc2-3)c1 (centres unmarked) [compound 156],100 to 1000,464,
,CN(CCOc1cc(-c2cnn(C)c2)c2c(c1)C(O)(C(F)(F)F)c1ccccc1-2)C(=O)C(C)(C)C (centres unmarked) [compound 471],< 100,26,
,CCc1ccc2c(c1)C(O)(C(F)(F)F)c1ccccc1-2 (centres unmarked) [compound 39],> 1000,4520,
,O=C(c1cc(Cl)c2c(c1)C(O)(C(F)(F)F)c1ccccc1-2)N1CC(OCCO)C1 (centres unmarked) [compound 328],< 100,78,
